Read-outs that look alike come from different tables or passages of the source.
Legend:
[1] = Rat pharmacokinetic study; format: in vivo, SD rat; conditions: for half-life: read-out: t½ (converted)
Procedure: SD rat pharmacokinetic study was performed on several compounds in Examples of the present disclosure through a single intravenous injection (IV, at a dose of 2 mg/kg) and a single oral administration (PO, at a dose of 10 mg/kg), and blood samples were taken before administration and 5 min, 15 min, 30 min, 1 h, 2 h, 4 h, 8 h, 12 h and 24 h after administration, respectively, to determine the plasma concentration of the compound for assay. The pharmacokinetic data of control compound and the compounds in Examples 17, 26, 28 and 29 of the present disclosure in rat plasma are shown in Tables 4-8.

[2] = molecular target: ATX enzyme (Homo sapiens (Human), UniProt Q13822); assay: ATX enzyme activity inhibition assay; format: biochemical; conditions: 16:0-LPC substrate, Amplex UltraRed fluorescence
Procedure: The tested compounds were dissolved with dimethyl sulfoxide (DMSO) to prepare 20 mM of stock solutions, the stock solutions were subjected to 4-fold gradient dilutions with DMSO, with the initial concentration of 20 µM and a total of 8 concentration gradients. 20 nL of diluted compound was transferred to a 384-well plate using Echo 550 and 5 µL of ATX enzyme solution formulated with 4 × Tris-HCl reaction buffer to the well, then the 384-well plate was centrifuged at 1000 rpm for 1 min and […] pre-incubated at room temperature for 15 min. Subsequently, 5 µL of 16:0-LPC foumulated with the above 4 × reaction buffer and 10 µL of assay solution containng 2 × Amplex UltraRed reagent, choline oxidase and horseradish peroxidase (HRP) foumulated with the same reaction buffer were added to each well, then the 384-well plate was centrifugated at 1000 rpm for 1 min. The fluorescence signals were read at an excitation wavelength of 530 nm and an emission wavelength of 590 nm by Synergy 2 microplate reader. The inhibition rate of the compound against enzyme reaction was calculated according to the fluorescence intensity ratio, and IC50 of the compound was analysed and calculated by GraphPad Prism 5 software.

[3] = molecular target: hERG potassium channel (Homo sapiens (Human), UniProt Q12809); assay: hERG inhibition assay (manual whole-cell patch clamp); format: cell-based; conditions: hERG tail current, stable transfected cell line
Procedure: Rapid activation of human delayed rectifier potassium current (IKr) is mainly mediated by hERG ion channel and participates in repolarization of human cardiomyocytes. Blocking this current with drugs will lead to QT interval prolongation syndrome in clinical practice, which will easily induce acute arrhythmia and even sudden death.
Experimental method: a whole-cell patch clamp technique was used to record hERG current. The cell suspension was added to a small petri dish and placed on an inverted microscope stage. After adherence, the cells were perfused with extracellular fluid at a recommended flow rate of 1-2 mL/min. The glass microelectrode was drawn by a microelectrode drawing instrument in two steps, and the resistance thereof after filling the electrode interior liquid was 2-5 MΩ. After the whole-cell recording mode was set up, the clamping potential was maintained at -80 mV. The depolarization voltage was applied to +60 mV for 850 ms, and then repolarized to -50 mV for 1275 ms to induce hERG tail current. Such a set of pulse programming was repeated every 15 seconds throughout the experiment. After the current was stable, the drug was administered by extracellular continuous perfusion from low concentration to high concentration. Starting from low concentration, perfusion continued until the drug effect was stable, then perfusion at the next concentration was performed. In this experiment, the blocking effect on hERG tail current was tested for the test objects at different concentrations and the positive control (N ≥ 2). Then, stimulus generation and signal acquisition were carried out by PatchMaster software; and a signal was amplified with a patch clamp amplifier. FitMaster, EXCEL, Graphpad Prism, SPSS 21.0, etc. were used for further data analysis and curve fitting. In data processing, when determining the blocking effect on hERG, the peak and baseline of tail current were calibrated. The inhibition rate (IR) of tail current was used to express the effect of the compounds at different concentrations.
IR = 100% × (peak of tail current before administration - peak of tail current after administration)/peak of tail current before administration.
IC50 was obtained by fitting the Hill equation (if applicable), if the maximum inhibition rate of the test object at all concentrations was less than 50%, then IC50 was not calculated. [00500]

[4] = molecular target: 3A4 subtype of CYP450 enzyme (Homo sapiens (Human), UniProt P08684); assay: 3A4 subtype of CYP450 enzyme time-dependent inhibition assay (IC50 shift); format: in vitro ADME; conditions: both IC50 values above top concentration; testosterone substrate; read-out: IC50 against 3A4 subtype (both groups, pre-incubated with and without NADPH)
Procedure: The probe substrate was testosterone at a concentration of 50 µM. The reaction was terminated after incubation for 10 min. The IC50 of the compound against enzyme was calculated by measuring the relative yield of metabolite, and the IC50 shift was calculated from the IC50 results of the groups pre-incubated with and without addition of NADPH.

Chain of hERG potassium channel (Q12809 whole entry): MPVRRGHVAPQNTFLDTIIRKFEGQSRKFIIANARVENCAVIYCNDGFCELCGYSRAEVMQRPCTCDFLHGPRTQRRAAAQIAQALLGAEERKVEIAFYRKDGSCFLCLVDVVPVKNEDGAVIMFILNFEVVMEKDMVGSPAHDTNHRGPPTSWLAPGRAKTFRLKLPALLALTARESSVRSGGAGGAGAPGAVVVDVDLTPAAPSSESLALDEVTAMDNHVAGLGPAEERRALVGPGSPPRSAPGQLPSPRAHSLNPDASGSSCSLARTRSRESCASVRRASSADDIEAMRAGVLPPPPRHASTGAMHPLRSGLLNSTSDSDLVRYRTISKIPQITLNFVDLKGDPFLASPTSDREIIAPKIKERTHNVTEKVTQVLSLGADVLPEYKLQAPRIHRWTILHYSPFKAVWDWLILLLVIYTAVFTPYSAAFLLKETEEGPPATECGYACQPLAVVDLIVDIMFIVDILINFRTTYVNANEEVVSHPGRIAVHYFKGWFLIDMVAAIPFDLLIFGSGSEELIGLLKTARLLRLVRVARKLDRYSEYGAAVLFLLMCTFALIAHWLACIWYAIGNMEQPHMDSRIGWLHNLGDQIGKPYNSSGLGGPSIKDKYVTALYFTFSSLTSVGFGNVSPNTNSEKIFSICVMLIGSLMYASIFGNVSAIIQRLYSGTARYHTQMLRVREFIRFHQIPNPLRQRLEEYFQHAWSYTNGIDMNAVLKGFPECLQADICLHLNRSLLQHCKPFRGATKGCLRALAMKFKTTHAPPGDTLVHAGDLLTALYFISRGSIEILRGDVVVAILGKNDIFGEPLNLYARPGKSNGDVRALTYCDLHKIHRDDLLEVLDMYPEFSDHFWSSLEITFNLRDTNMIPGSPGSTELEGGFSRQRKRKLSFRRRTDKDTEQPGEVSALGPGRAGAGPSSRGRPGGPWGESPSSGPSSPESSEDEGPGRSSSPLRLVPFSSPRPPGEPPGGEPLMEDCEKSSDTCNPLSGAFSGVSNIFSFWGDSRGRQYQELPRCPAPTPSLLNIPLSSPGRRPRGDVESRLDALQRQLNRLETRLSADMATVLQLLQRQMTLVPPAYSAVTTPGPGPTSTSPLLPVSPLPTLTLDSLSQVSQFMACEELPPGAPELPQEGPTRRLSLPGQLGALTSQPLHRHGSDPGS
Chain of 3A4 subtype of CYP450 enzyme (P08684 whole entry): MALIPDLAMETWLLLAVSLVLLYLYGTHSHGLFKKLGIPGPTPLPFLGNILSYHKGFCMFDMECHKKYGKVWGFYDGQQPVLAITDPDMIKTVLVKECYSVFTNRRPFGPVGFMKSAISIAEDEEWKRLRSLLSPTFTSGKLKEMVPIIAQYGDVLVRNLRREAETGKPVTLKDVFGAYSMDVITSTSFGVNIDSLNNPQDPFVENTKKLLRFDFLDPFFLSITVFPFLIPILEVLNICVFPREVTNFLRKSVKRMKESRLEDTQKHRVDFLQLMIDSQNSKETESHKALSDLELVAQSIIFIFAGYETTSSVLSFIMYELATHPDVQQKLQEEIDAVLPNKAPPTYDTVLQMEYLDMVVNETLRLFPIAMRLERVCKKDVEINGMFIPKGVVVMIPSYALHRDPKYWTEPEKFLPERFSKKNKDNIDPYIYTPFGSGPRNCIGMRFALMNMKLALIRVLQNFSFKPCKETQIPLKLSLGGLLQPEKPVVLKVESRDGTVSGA

Molecule CCN(c1nc(-c2ccc(F)cc2)c(C#N)s1)c1c2nc(-c3cnc(N4CCOCC4)nc3)ccc2nn1CC [Example 29, 2-(ethyl(2-ethyl-5-(2-morpholinopyrimidin-5-yl)-2H-pyrazolo[4,3-b]pyridin-3-yl)amino)-4-(4-fluorophenyl)thiazole-5-carbonitrile] has a Cl_F_pred ([1]; IV 2 mg/kg) of 4.83 mL/min/kg, a Cl_F_pred ([1]; PO 10 mg/kg) of 18.3 mL/min/kg and an F ([1]; PO 10 mg/kg vs IV 2 mg/kg) of 11.2%. It also gave an AUC(0-inf) ([1]; SD, plasma, IV 2 mg/kg) of 7220 ng·h/mL, an AUC(0-t) ([1]; SD, plasma, IV 2 mg/kg) of 6840 ng·h/mL and a Cmax ([1]; SD, plasma, IV 2 mg/kg) of 3480 ng/mL. It also gave a half-life ([1]; SD, plasma, IV 2 mg/kg) of 8.2 h, an AUC(0-inf) ([1]; SD, plasma, PO 10 mg/kg) of 9150 ng·h/mL and an AUC(0-t) ([1]; SD, plasma, PO 10 mg/kg) of 7780 ng·h/mL. The Cmax ([1]; SD, plasma, PO 10 mg/kg) was 847 ng/mL, the Tmax ([1]; SD, plasma, PO 10 mg/kg) was 3.3 h and the half-life ([1]; SD, plasma, PO 10 mg/kg) was 9.2 h. For the same molecule, the IC50 [2] was 0.023 µM, the IC50 [3] was over 30 µM and the IC50 [4] was over 100 µM.

From patent US20230295159A1, “ATX INHIBITOR, AND PREPARATION METHOD THEREFOR AND USE THEREOF” (SUZHOU ARK BIOPHARMACEUTICAL CO., LTD., priority 2020, published 2023)
